Values after ≈ are worked out from the molar mass of the structure shown. Where a SMILES comes first, the peptide text is derived from it. [ ]: non-standard residue; d: D form. The star is where a group is joined. Palmitoyl = CCCCCCCCCCCCCCCC(=O)*; Lauroyl = CCCCCCCCCCCC(=O)*; AEEA = NCCOCCOCC(=O)O; Ahx = NCCCCCC(=O)O; βAla = NCCC(=O)O
Legend:
primary fibroblasts = test: Cytotoxicity, MTT assay; type: cell-based, human; details: MTT, 24 h; for effect on cell viability (in words): fibroblasts, 1 to 50 µg/mL; for IC50: primary Fibroblasts
Procedure: (§1) Human dermal fibroblasts were obtained as previously reported from biopsies of healthy human skin of three donors undergoing a surgery. All procedures were approved by the Ethics Committee of Medicinal University of Gdansk (NKEBN/483/2011 and NKBBN/745/2019-2020). Immortalized human HaCaT keratinocytes (DKFZ Heidelberg, Germany) were obtained commercially.
(§2) Both types of cell lines were grown in Dulbecco′s Modified Eagle′s Medium (DMEM) (Sigma-Aldrich, Germany), containing […] of glucose, […] of L- glutamine, sodium pyruvate and sodium bicarbonate. Additionally, the medium was supplemented with 10% FCS (fetal calf serum, Sigma-Aldrich, Germany), 100 U/mL of penicillin and 100 μg/mL of streptomycin (Sigma-Aldrich, Germany). The cells were grown in standard culture dishes (BD, USA) in a humidified atmosphere with 5% CO2 at […], and the medium was changed every 2 days.
(§3) The fibroblasts and keratinocytes were seeded at density of 5500 cells per well into 96-well plates suspended in a medium supplemented with 10% FCS. After 24 h from seeding, the media were exchanged with serum- and antibiotic-free DMEM and tested peptides, dissolved in sterile water, which were added, yielding a final concentration ranging from 1 to 50 μg/mL. The cells were then incubated for the next 24 h. At the end of the experiment, the cells were treated with 20 μL of MTT (5 mg/mL in PBS). After 3 h of incubation in the presence of MTT dye, the DMEM medium was discarded and replaced with 6 mM HCl in isopropanol. When the purple crystals of formazan were fully solubilized, absorbance at 570 nm was read.

keratinocytes (HaCaT) = test: Cytotoxicity, MTT assay; type: cell-based, human; details: MTT, 24 h; for IC50: Keratinocytes (HaCaT); for effect on cell viability (in words): keratinocytes, 1 to 50 µg/mL
Procedure: as §1, §2, §3

B. cereus PCM 482 = test: MIC, broth microdilution; type: cell-based, Bacillus cereus; details: B. cereus PCM 482, 24 h
Excerpt: (§4) Escherichia coli (PCM 2057 = ATCC 25922), Staphylococcus aureus (PCM 2054 = ATCC 25923), Staphylococcus epidermidis (PCM 2118 = ATCC 14990), Bacillus subtilis (PCM 2224 = ATCC 9799), Bacillus cereus (PCM 482 = ATCC 10702) and Pseudomonas aeruginosa (PCM 499 = ATCC 10145) were obtained from the Polish Collection of Microorganisms. Fungi strains Candida albicans (CCM 8186 = CNTC 49/64), Candida glabrata (CCM 8270 = ATCC 90030), Candida parapsilosis (CCM 8260 = ATCC 22019) and Candida krusei (CCM 8271 = ATCC 6258) were acquired from the Czech Collection of Microorganisms. S. aureus USA300 (wild type strain), the reference strain of Klebsiella pneumoniae (ATCC 13883) and clinical isolates of Pseudomonas aeruginosa (PA1, PA2) collected from nonrelated patients admitted to the Stefan Zeromski Specialist Municipal Hospital in Krakow (Poland) were kindly provided by the research group of the Department of Microbiology, Faculty of Biochemistry, Biophysics and Biotechnology, Jagiellonian University, Krakow, Poland.
(§5) Luria-Bertani broth (LB) and Sabouraud Dextrose broth (SB) (Biocorp, Poland) were used for cultivation of bacteria and fungi strains, respectively. The antimicrobial activity of the peptides were analyzed through determination of MIC (minimal inhibitory concentration) parameters according to Clinical and Laboratory Standards (CLSI) guidelines developed for aerobic bacteria and yeasts, respectively. Mueller-Hinton broth (MHB) was used as the working medium for all bacterial strains, while in the case of fungi, RPMI-1640 (with L-glutamine, without sodium bicarbonate) growth medium buffered with MOPS (morpholinepropanesulfonic acid) and supplemented with 2% glucose was used. Inoculum was prepared from freshly grown cultures of microorganisms at their exponential phase of growth. […] Plates were then incubated for 24 h at 37 °C in the case of bacteria and at 35 °C in the case of fungi. After that time, absorbance was read at 590 nm with a Perkin Elmer plate reader. Cultures without peptide were treated as positive control, while uninoculated media were defined as negative control. All measurements were run at least in triplicate.

[1] = tested on: S. aureus (PCM 2054) biofilm; test: Biofilm inhibition assay (MTT); type: cell-based, Staphylococcus aureus; details: S. aureus biofilm development, 24 h post-inoculation
Procedure: In the case of bacteria, an overnight culture of S. aureus in Tryptic Soy Broth (TSB) supplemented with 2% glucose (TSB/+G) was used to prepare inoculum for the experiments. Briefly, 5 mL of 24 h culture was centrifuged at 5000× g, washed with sterile PBS and suspended in a fresh 2 × concentrated TSB/+G. In the case of yeasts, the overnight culture of C. albicans in Sabouraud dextrose broth (SB) was used for inoculum preparation. Similar to above, 5 mL of 24 h culture was centrifuged, washed with PBS and then suspended in sterile 2 × concentrated RPMI-1640 medium (with L-glutamine, without sodium bicarbonate) supplemented with 2% glucose (RPMI-1640/+G). In both cases, the cell concentration of the inoculum was about 1 × 10^7 cells per ml.
For the determination of the inhibitory concentration that reduced biofilm development by 50% (BIC50^, expressed in µg/mL), 100 µL inoculum in 2 × concentrated RPMI-1640/+G medium (in the case of C. albicans) or 2 x concentrated TSB/+G broth (in the case of S. aureus) was transferred to each well of 96-well plates containing 100 µL of serially diluted in water tested compounds. The final concentrations of the compounds were the same as those used in MIC determination studies. The 96-well plates were then incubated for 24 h at 37 °C and 35 °C in the case of bacteria and fungi, respectively. Viability of the microorganisms in the presence of the tested compounds was analyzed by means of MTT assay.
The reduction in biofilm viability was analyzed by means of MTT assay. Briefly, 20 μL of MTT solution (5 mg/mL in PBS) was added to prewashed wells with exchanged medium (180 μL of fresh medium) wells containing bacterial/yeast biofilms. Plates were then incubated in the dark for the next 3 h at 37 °C. After that time, the medium was replaced with 6 mM HCl in isopropanol and, when the reduced MTT was fully dissolved, the plates were read at 570 nm. Activity against fully developed 24 h old biofilm was described as biofilm eradication concentration (BEC50 expressed in µg/mL), which corresponded to the concentration of the compound able to reduce 50% of biofilm viability compared with the growth control.

P. aeruginosa PCM 499 = test: MIC, broth microdilution; type: cell-based, Pseudomonas aeruginosa; details: P. aeruginosa PCM 499, 24 h
Excerpt: as §4, §5

C.krusei CCM 8271 = test: MIC, broth microdilution; type: cell-based, Candida krusei; details: C.krusei CCM 8271, 24 h
Excerpt: as §4, §5

C.parapsilosis CCM 8260 = test: MIC, broth microdilution; type: cell-based, Candida parapsilosis; details: C.parapsilosis CCM 8260, 24 h
Excerpt: as §4, §5

S. epidermidis PCM 2118 = test: MIC, broth microdilution; type: cell-based, Staphylococcus epidermidis; details: S. epidermidis PCM 2118, 24 h
Excerpt: as §4, §5

Compound	effect on cell viability (in words) (primary fibroblasts)	IC50 (primary fibroblasts) [µg/mL]	IC50 (keratinocytes (HaCaT)) [µg/mL]	effect on cell viability (in words) (keratinocytes (HaCaT))	MIC100 (B. cereus PCM 482) [µg/mL]	BIC50 [1] [µg/mL]	MIC100 (P. aeruginosa PCM 499) [µg/mL]	MIC100 (C.krusei CCM 8271) [µg/mL]	MIC100 (C.parapsilosis CCM 8260) [µg/mL]	MIC100 (S. epidermidis PCM 2118) [µg/mL]
CC[C@H](C)[C@H](NC(=O)COCCOCCNC(=O)[C@H](Cc1c[nH]cn1)NC(=O)CCNC(=O)CCCCCN)C(=O)N[C@@H](CCCCN)C(=O)N[C@@H](CCCCN)C(=O)N[C@H](C(=O)N[C@@H](CC(C)C)C(=O)N[C@@H](CO)C(=O)N[C@@H](CCCCN)C(=O)N[C@H](C(=O)N[C@@H](CCCCN)C(=O)N[C@@H](CCCCN)C(=O)N[C@@H](CC(C)C)C(=O)N[C@@H](CC(C)C)C(N)=O)[C@@H](C)CC)[C@@H](C)CC [AHX-CAR-PEG-DK5] (H-[Ahx][βAla]H[AEEA]IKKILSKIKKLL-NH2)	neutral or even pro-proliferative	>50	>50	neutral or even pro-proliferative	>50	>50	>50	>50	50 (≈ 26.4 µM)	6.25 (≈ 3.31 µM)
CC[C@H](C)[C@H](NC(=O)CCCCCN)C(=O)N[C@@H](CCCCN)C(=O)N[C@@H](CCCCN)C(=O)N[C@H](C(=O)N[C@@H](CC(C)C)C(=O)N[C@@H](CO)C(=O)N[C@@H](CCCCN)C(=O)N[C@H](C(=O)N[C@@H](CCCCN)C(=O)N[C@@H](CCCCN)C(=O)N[C@@H](CC(C)C)C(=O)N[C@@H](CC(C)C)C(N)=O)[C@@H](C)CC)[C@@H](C)CC [AHX-DK5] (H-[Ahx]IKKILSKIKKLL-NH2)	moderately toxic	50 (≈ 32.5 µM)	>50	moderately toxic	50 (≈ 32.5 µM)	6.25	25 (≈ 16.3 µM)	50 (≈ 32.5 µM)	12.5 (≈ 8.13 µM)	0.78 (≈ 0.507 µM)
CCCCCCCCCCCC(=O)NCCC(=O)N[C@@H](Cc1c[nH]cn1)C(=O)NCCOCCOCC(=O)N[C@H](C(=O)N[C@@H](CCCCN)C(=O)N[C@@H](CCCCN)C(=O)N[C@H](C(=O)N[C@@H](CC(C)C)C(=O)N[C@@H](CO)C(=O)N[C@@H](CCCCN)C(=O)N[C@H](C(=O)N[C@@H](CCCCN)C(=O)N[C@@H](CCCCN)C(=O)N[C@@H](CC(C)C)C(=O)N[C@@H](CC(C)C)C(N)=O)[C@@H](C)CC)[C@@H](C)CC)[C@@H](C)CC [C12-CAR-PEG-DK5] ({Lauroyl-βAla}-H[AEEA]IKKILSKIKKLL-NH2)		12.5 (≈ 6.38 µM)	10 (≈ 5.1 µM)		>50		12.5 (≈ 6.38 µM)	12.5 (≈ 6.38 µM)	3.13 (≈ 1.6 µM)	0.78 (≈ 0.398 µM)
CCCCCCCCCCCCCCCC(=O)N[C@H](C(=O)N[C@@H](CCCCN)C(=O)N[C@@H](CCCCN)C(=O)N[C@H](C(=O)N[C@@H](CC(C)C)C(=O)N[C@@H](CO)C(=O)N[C@@H](CCCCN)C(=O)N[C@H](C(=O)N[C@@H](CCCCN)C(=O)N[C@@H](CCCCN)C(=O)N[C@@H](CC(C)C)C(=O)N[C@@H](CC(C)C)C(N)=O)[C@@H](C)CC)[C@@H](C)CC)[C@@H](C)CC [Compound C16-DK5] (Palmitoyl-IKKILSKIKKLL-NH2)		7 (≈ 4.21 µM)	5 (≈ 3.01 µM)		>50	6.25	>50	6.25 (≈ 3.76 µM)		25 (≈ 15 µM)

From article PMC8269107, “Lipidation of Temporin-1CEb Derivatives as a Tool for Activity Improvement, Pros and Cons of the Approach” (International Journal of Molecular Sciences, 2021)
